From PMC11200585, “Prospects for Prostate Cancer Chemotherapy: Cytotoxic Evaluation and Mechanistic Insights of Quinolinequinones with ADME/PK Profile” (Biomedicines, 2024)

Assays:
Type in all cases: cell-based, human
HOP-62 [1] = assay: NCI-60 five-dose assay (non-small cell lung cancer); details: 48 h, SRB
PC-3 = assay: NCI-60 five-dose assay (prostate cancer); details: 48 h, SRB
T-47D [2] = assay: NCI-60 five-dose assay (breast cancer); details: 48 h, SRB
KM12 = assay: NCI-60 five-dose assay (colon cancer); details: 48 h, SRB
OVCAR-4 = assay: NCI-60 five-dose assay (ovarian cancer); details: 48 h, SRB
MOLT-4 [3] = assay: NCI-60 one-dose screen (leukemia); details: 10 µM single dose
HL-60(TB) [4] = assay: NCI-60 one-dose screen (leukemia); details: 10 µM single dose, 48 h
SW-620 = assay: NCI-60 five-dose assay (colon cancer); details: 48 h, SRB
MDA-MB-468 = assay: NCI-60 one-dose screen (breast cancer); details: 10 µM single dose, 48 h
Description: (§1) The obtained quinolinequinones were submitted to NCI, Bethesda, USA, and, as per standard protocol of NCI, all compounds were evaluated for their antiproliferative activity at single-dose assay (10 µM concentration in DMSO) on a panel of 60 cancer cell lines derived from leukemia, non-small-cell lung, colon, CNS, melanoma, ovarian, renal, prostate, and breast, as per protocol. Tested compounds were added to the microtiter culture plates followed by incubation for 48 h at 37 °C. Sulforhodamine B (SRB), a protein-binding dye, is used for endpoint determination. The percent of the growth of the treated cells was determined in comparison to the untreated control cells and the results of each tested compound were reported. Data from one-dose experiments pertain to the percentage growth at 10 μM [16, 17, 18].

T-47D [5] = assay: NCI-60 one-dose screen (breast cancer); details: 10 µM single dose, 48 h
Description: as §1

HS 578T = assay: NCI-60 one-dose screen (breast cancer); details: 10 µM single dose, 48 h
Description: as §1

OVCAR-5 = assay: NCI-60 five-dose assay (ovarian cancer); details: 48 h, SRB
CAKI-1 = assay: NCI-60 five-dose assay (renal cancer); details: 48 h, SRB
BT-549 = assay: NCI-60 five-dose assay (breast cancer); details: 48 h, SRB
SK-OV-3 = assay: NCI-60 five-dose assay (ovarian cancer); details: 48 h, SRB
MOLT-4 [6] = assay: NCI-60 five-dose assay (leukemia); details: 48 h, SRB
MCF7 = assay: NCI-60 five-dose assay (breast cancer); details: 48 h, SRB
SK-MEL-28 = assay: NCI-60 five-dose assay (melanoma); details: 48 h, SRB
A498 = assay: NCI-60 five-dose assay (renal cancer); details: 48 h, SRB
LOX IMVI = assay: NCI-60 five-dose assay (melanoma); details: 48 h, SRB
HT29 = assay: NCI-60 five-dose assay (colon cancer); details: SRB
HCC-2998 = assay: NCI-60 five-dose assay (colon cancer); details: 48 h, SRB
NCI-H322M = assay: NCI-60 one-dose screen (non-small cell lung cancer); details: 10 µM single dose, 48 h
Description: as §1

NCI-H226 = assay: as above; details: 10 µM single dose, 48 h
Description: as §1

NCI-H23 = assay: as above; details: 10 µM single dose, 48 h
Description: as §1

EKVX [7] = assay: as above; details: 10 µM single dose, 48 h
Description: as §1

HOP-62 [8] = assay: as above; details: 10 µM single dose
Description: as §1

NCI-H460 = assay: as above; details: 10 µM single dose
Description: as §1

HOP-92 = assay: as above; details: 10 µM single dose, 48 h
Description: as §1

NCI-H522 = assay: as above; details: 10 µM single dose, 48 h
Description: as §1

A549/ATCC = assay: as above; details: 10 µM single dose, 48 h
Description: as §1

HCT-116 = assay: NCI-60 five-dose assay (colon cancer); details: 48 h, SRB
CCRF-CEM = assay: NCI-60 five-dose assay (leukemia); details: Homo sapiens, 48 h, SRB
HL-60(TB) [9] = assay: NCI-60 five-dose assay (leukemia); details: 48 h, SRB
EKVX [10] = assay: NCI-60 five-dose assay (non-small cell lung cancer); details: 48 h, SRB
MDA-MB-231/ATCC = assay: NCI-60 five-dose assay (breast cancer); details: 48 h, SRB
[11] = Homo sapiens, read-out: LC50 (the source's name)

`COc1cc(NC2=C(Cl)C(=O)c3nc(C)ccc3C2=O)cc(OC)c1` [AQQ5] was tested. Which TGI (HOP-62 [1]) did it give?
Its TGI is 14.1 µM.

What about the GI50 (HOP-62 [1]; Homo sapiens) of the same molecule?
The GI50 was 4.26 µM.

What about the LC50 (concentration killing 50% of cells) (HOP-62 [1]; Homo sapiens) of the same molecule?
Its LC50 (concentration killing 50% of cells) is 37.7 µM.

What about the TGI (PC-3) of the same molecule?
Its TGI is 10.4 µM.

What about the GI50 (PC-3; Homo sapiens) of the same molecule?
The GI50 was 2.56 µM.

And the CC50 (PC-3; [11])?
The CC50 was 43.6 µM.

What about the TGI (T-47D [2]) of the same molecule?
Its TGI is 3.62 µM.

What about the GI50 (T-47D [2]; Homo sapiens, T47D) of the same molecule?
Its GI50 is 1.5 µM.

What about the CC50 (T-47D [2]; Homo sapiens, T47D, read-out: LC50 (the source's name)) of the same molecule?
The CC50 was 8.74 µM.

What about the TGI (KM12) of the same molecule?
The TGI was 26.6 µM.

And the GI50 (KM12; Homo sapiens)?
The GI50 was 13 µM.

What about the CC50 (KM12; [11]) of the same molecule?
Its CC50 is 54.7 µM.

What about the TGI (OVCAR-4) of the same molecule?
Its TGI is 2.82 µM.

And the GI50 (OVCAR-4; Homo sapiens)?
Its GI50 is 1.4 µM.

And the LC50 (concentration killing 50% of cells) (OVCAR-4; Homo sapiens)?
Its LC50 (concentration killing 50% of cells) is 5.66 µM.

What about the “GP (growth percentage)” value (MOLT-4 [3]; 48 h) of the same molecule?
The value was 8.29%.

And the inhibition at 10 µM (MOLT-4 [3]; Homo sapiens)?
The inhibition at 10 µM was 91.7%.

And the “GP (growth percentage)” value (HL-60(TB) [4])?
Its value is −13.44%.

What about the TGI (SW-620) of the same molecule?
The TGI was 3.47 µM.

And the GI50 (SW-620; Homo sapiens)?
Its GI50 is 1.76 µM.

And the LC50 (SW-620; Homo sapiens)?
The LC50 was 6.85 µM.

And the “GP (growth percentage)” value (MDA-MB-468)?
The value was −78.49%.

And the “GP (growth percentage)” value (T-47D [5])?
The value was −56.01%.

And the “GP (growth percentage)” value (HS 578T)?
The value was −32.78%.

And the TGI (OVCAR-5)?
Its TGI is 5.79 µM.

And the GI50 (OVCAR-5; Homo sapiens)?
Its GI50 is 2.38 µM.

And the LC50 (lethal concentration 50%) (OVCAR-5; Homo sapiens)?
The LC50 (lethal concentration 50%) was 23.7 µM.

And the TGI (CAKI-1)?
Its TGI is 3.15 µM.

And the GI50 (CAKI-1; Homo sapiens)?
Its GI50 is 1.76 µM.

And the LC50 (lethal concentration, 50% net cell kill) (CAKI-1; Homo sapiens)?
The LC50 (lethal concentration, 50% net cell kill) was 5.65 µM.

And the TGI (BT-549)?
Its TGI is 3.40 µM.

What about the GI50 (BT-549; Homo sapiens) of the same molecule?
Its GI50 is 1.97 µM.

And the LC50 (concentration giving 50% net cell kill) (BT-549; Homo sapiens)?
The LC50 (concentration giving 50% net cell kill) was 5.87 µM.

And the TGI (SK-OV-3)?
The TGI was 25.1 µM.

What about the GI50 (SK-OV-3; Homo sapiens) of the same molecule?
Its GI50 is 12.6 µM.

And the LC50 (50% net cell kill) (SK-OV-3; Homo sapiens)?
The LC50 (50% net cell kill) was 50.1 µM.

And the TGI (MOLT-4 [6])?
Its TGI is 7.00 µM.

And the GI50 (MOLT-4 [6]; Homo sapiens)?
Its GI50 is 1.5 µM.

And the LC50 (MOLT-4 [6]; Homo sapiens)?
Its LC50 is greater than 100 µM.

And the TGI (MCF7)?
The TGI was 5.33 µM.

And the GI50 (MCF7; Homo sapiens)?
Its GI50 is 1.82 µM.

And the LC50 (MCF7; Homo sapiens)?
Its LC50 is greater than 100 µM.

What about the TGI (SK-MEL-28) of the same molecule?
Its TGI is 3.23 µM.

And the GI50 (SK-MEL-28; Homo sapiens)?
The GI50 was 1.79 µM.

What about the LC50 (SK-MEL-28; Homo sapiens) of the same molecule?
The LC50 was 5.85 µM.

What about the TGI (A498) of the same molecule?
Its TGI is 11.4 µM.

What about the GI50 (A498; Homo sapiens) of the same molecule?
Its GI50 is 2.35 µM.

What about the LC50 (A498; Homo sapiens) of the same molecule?
Its LC50 is 33.8 µM.

And the TGI (LOX IMVI)?
Its TGI is 2.32 µM.

And the GI50 (LOX IMVI; Homo sapiens)?
Its GI50 is 1.1 µM.

What about the LC50 (concentration killing 50% of cells) (LOX IMVI; Homo sapiens) of the same molecule?
The LC50 (concentration killing 50% of cells) was 4.88 µM.

What about the TGI (HT29; 48 h) of the same molecule?
Its TGI is 3.48 µM.

What about the GI50 (HT29; Homo sapiens, HT-29, 48 h) of the same molecule?
The GI50 was 1.87 µM.

What about the LC50 (concentration killing 50% of cells) (HT29; Homo sapiens, HT-29, 48 h) of the same molecule?
The LC50 (concentration killing 50% of cells) was 6.48 µM.

And the TGI (HCC-2998)?
The TGI was 3.26 µM.

What about the GI50 (HCC-2998; Homo sapiens) of the same molecule?
The GI50 was 1.81 µM.

What about the LC50 (concentration killing 50% of cells) (HCC-2998; Homo sapiens) of the same molecule?
Its LC50 (concentration killing 50% of cells) is 5.88 µM.

And the “GP (growth percentage)” value (NCI-H322M)?
The value was 89.75%.

What about the “GP (growth percentage)” value (NCI-H226) of the same molecule?
Its value is 68.59%.

And the “GP (growth percentage)” value (NCI-H23)?
Its value is −55.61%.

And the “GP (growth percentage)” value (EKVX [7])?
The value was 74.66%.

What about the “GP (growth percentage)” value (HOP-62 [8]; 48 h) of the same molecule?
Its value is 0.85%.

And the inhibition at 10 µM (HOP-62 [8]; Homo sapiens)?
The inhibition at 10 µM was 99.2%.

And the “GP (growth percentage)” value (NCI-H460; 48 h)?
The value was 2.02%.

And the inhibition at 10 µM (NCI-H460; Homo sapiens)?
The inhibition at 10 µM was 98%.

And the “GP (growth percentage)” value (HOP-92)?
The value was −12.23%.

What about the “GP (growth percentage)” value (NCI-H522) of the same molecule?
The value was −80.61%.

And the “GP (growth percentage)” value (A549/ATCC)?
Its value is 42.41%.

And the TGI (HCT-116)?
Its TGI is 2.88 µM.

What about the GI50 (HCT-116; Homo sapiens) of the same molecule?
The GI50 was 1.53 µM.

What about the LC50 (HCT-116; Homo sapiens) of the same molecule?
The LC50 was 5.45 µM.

What about the GI50 (CCRF-CEM) of the same molecule?
The GI50 was 2.23 µM.

What about the LC50 (concentration killing 50% of cells) (CCRF-CEM) of the same molecule?
Its LC50 (concentration killing 50% of cells) is greater than 100 µM.

And the TGI (HL-60(TB) [9])?
The TGI was 4.65 µM.

What about the GI50 (HL-60(TB) [9]; Homo sapiens) of the same molecule?
Its GI50 is 1.38 µM.

And the CC50 (HL-60(TB) [9]; [11])?
Its CC50 is greater than 100 µM.

What about the TGI (EKVX [10]) of the same molecule?
The TGI was 3.12 µM.

And the GI50 (EKVX [10]; Homo sapiens)?
Its GI50 is 1.6 µM.

And the CC50 (EKVX [10]; [11])?
The CC50 was 6.08 µM.

And the TGI (MDA-MB-231/ATCC)?
The TGI was 3.08 µM.

And the GI50 (MDA-MB-231/ATCC; Homo sapiens)?
The GI50 was 1.46 µM.

What about the LC50 (concentration killing 50% of cells) (MDA-MB-231/ATCC; Homo sapiens) of the same molecule?
The LC50 (concentration killing 50% of cells) was 6.48 µM.
